The values that follow come from patent US20130065959A1, “SANITIZING MEAT WITH PERACID AND 2-HYDROXY ORGANIC ACID COMPOSITIONS” (Fresh Express Incorporated, priority 2009, published 2013).

SMILES strings stand for the structures.

One data set deals with E. coli K12. In words: Attached cells challenge test on produce leaves (Example 1). The class given is cell-based.
Another data set relates to Listeria innocua. The description is as above. Type of data set: cell-based.
In data set [1] the test system is E. coli K-12 (ATCC 25253). In words: Attached cells on vegetable and fruit surface (Example 7). The note with it: 45 sec. The class given is cell-based. How it is done:
(§1) Inoculum preparation: ATCC freeze dried culture was rehydrated in 10 mL of sterilized tryptic soy broth and mixed homogeneously. 0.1 mL of the stock solution was transferred to 10 mL of TSB and incubated at 37C for 24 h. Enrichment was streaked to confirm purity. 2 mL of the enriched stock was transferred to 200 mL of TSB and incubated at 37C for 24 h and 36 h, respectively for E. coli K-12 (ATCC 25253) (EC) and Listeria innocua (ATCC 33090) (LI) resulting in ˜10^8 cfu/mL stationary phase culture stock. The stock was cooled for at 4C for 1 h. Microbial population of the stationary phase stock culture was enumerated by means of serial dilution with 9-mL Butterfield phosphate buffer tubes and spread plating on Tryptic Soy Agar (TSA) pre-poured agar plates for EC or Modified Oxford Agar (MOX) pre-poured agar plates for LI.
(§2) Vegetable and fruit surface inoculation: The 200 mL˜10^8 cfu/mL stock culture solution was homogeneously mixed by shaking and swirling the Erlenmeyer flask. The 200 mL culture was separated into 4 centrifuge tubes (50 mL each) and centrifuged at 10,000 rpm and 4C for 15 min. The stock culture pellet was re-suspended with 5 mL of 5% Horse Serum. All the re-suspended cultures from the four centrifuge tubes were combined to form 20 mL˜10^9 cfu/mL inoculating stock culture. The outer peel or surface of the test vegetable and fruit was cut into 5cm×2.5 cm pieces or diced into […] cubes in the case of tomatoes for inoculation. 50 uL inoculum in the form of 2 uL droplets were spiked onto the strawberry, and diced tomato surface while 100 uL in the form of 2 uL droplets were inoculated onto the potato peel. The spiked surfaces or peels were placed in a biological safety cabinet for 60 min at 18 to 24C for drying.
(§3) Treatment of inoculated vegetable and fruit surfaces: Each sample of inoculated vegetable or fruit surface was placed into a 2.5L stomacher bag containing 500 mL of the tested solution and shook vigorously for 45 s. The tested solutions included city water, lactic acid solution (LA), peracetic acid solution (PA), and FreshRinse solution (FR). The treated vegetable or fruit surface was immediately transferred into a sterile stomacher bag containing 100 mL of Butterfield phosphate buffer with 1 sodium thiosulfate pellet at the end of the 45 s treatment. Each solution treatment was performed in duplications. The reduction for each solution treatment was compared to that of the city water treatment.

The subject of data set [2] is Listeria innocua (ATCC 33090). Described as above. The class given is cell-based. As to conditions: Whole Strawberry, 45 sec. As for the experimental part:
as §1, §2, §3

The test system of data set [3] is E. coli K-12 (ATCC 25253). In words: Attached cells on chicken wing skin (Example 8). The class given is cell-based. As to conditions: Middle chicken wing skin, 10.5 min. As for the experimental part:
as §1, with “TSB” for “tryptic soy broth”, “h” for “h and 36 h, respectively”, “(EC)” for “(EC) and Listeria innocua (ATCC 33090) (LI)”, “cooled” for “cooled for”, “EC” for “EC or Modified Oxford Agar (MOX) pre-poured agar plates for LI.”
Chicken wing surface inoculation: The 200 mL ˜10^8cfu/mL stock culture solution was homogeneously mixed by shaking and swirling the Erlenmeyer flask. The 200 mL culture was separated into 4 centrifuge tubes (50 mL each) and centrifuged at 10,000 rpm and 4C for 15 min. The stock culture pellet was re-suspended with 5 mL of 5% Horse Serum. All the re-suspended cultures from the four centrifuge tubes were combined to form 20 mL˜10^9 cfu/mL inoculating stock culture. The chicken middle wing was pat dried by paper towel. A permanent marker was used to mark a 2.5 cm×2.5 cm square at the middle of the flat surface of the chicken wing for inoculation. 50 uL inoculum in the form of 2 uL droplets were spiked onto the marked square on the chicken wing skin. The inoculated chicken wing was placed into a sterile polypropylene basket. The spiked chicken wing inside the polypropylene basket was dried inside a biological safety cabinet for 120 min at 18 to 24C.
Treatment of inoculated chicken wing: Each sample of inoculated chicken wing was placed into a 2.5L stomacher bag containing 500 mL of the tested solution for 10 minutes with intermittent 30 s-shakings at 0, 4, and 9 min. The tested solutions included city water, lactic acid solution (LA), peracetic acid solution (PA), and FreshRinse solution (FR). The treated chicken wing was immediately removed from the treatment solution after 10 min and placed into a sterilized Petri-dish with the marked side facing up. A pre-wet sterilized swab dipped in 10 mL Butterfield phosphate buffer with sodium thiosulfate was used to swab the marked area. After swabbing the cotton wool swab was immediately placed back into the 10 mL Butterfield phosphate buffer with sodium thiosulfate and mixed. One mL was immediately transferred from the aforementioned tube to a 9 mL Butterfield phosphate buffer. The total treatment time including the exposure time, the swabbing time, and the transfer time was 10.5 min. Each solution treatment was performed in duplications. The reduction for each solution treatment was compared to that of the city water treatment

The conditions of data set [4]: cited from earlier work.

Take `CC(O)C(=O)O` (centres unmarked) [Lactic Acid, lactic acid]: the “Log reduction, attached cells” value in the data set with E. coli K12 (Romaine, PAA 0 ppm, LA 0.6%) is reported as 0.24; with E. coli K12 (Romaine, PAA 0 ppm, LA 0.9%), 0.37; with E. coli K12 (Romaine, PAA 0 ppm, LA 1.2%), 1.28; in the data set on E. coli K12 (Spinach, PAA 0 ppm, LA 0.6%), 0.09; in the data set on E. coli K12 (Spinach, PAA 0 ppm, LA 0.9%), 0.42; with E. coli K12 (Spinach, PAA 0 ppm, LA 1.2%), 0.81. Besides, the “Log reduction, attached cells” value came out at 1.1 in the data set on Listeria innocua (Romaine, PAA 0 ppm, LA 0.6%); 1.4 in the data set on Listeria innocua (Romaine, PAA 0 ppm, LA 0.9%); 1.5 in the data set on Listeria innocua (Romaine, PAA 0 ppm, LA 1.2%); 0.1 in the data set on Listeria innocua (Spinach, PAA 0 ppm, LA 0.6%); 0.2 in the data set with Listeria innocua (Spinach, PAA 0 ppm, LA 0.9%); 0.2 in the data set on Listeria innocua (Spinach, PAA 0 ppm, LA 1.2%). In addition, the Log reductions in data set [1] (Diced Tomato, PA 0 ppm, LA 1,500 ppm) is given as 0.1; in data set [1] (Diced Tomato, PA 0 ppm, LA 3,000 ppm) it was 0.0; in data set [1] (Potato peel, PA 0 ppm, LA 1,500 ppm) it was 0.1; in data set [1] (Potato peel, PA 0 ppm, LA 3,000 ppm), 0.0; in data set [2] (PA 0 ppm, LA 1,500 ppm), 0.0; in data set [2] (PA 0 ppm, LA 3,000 ppm), 0.5. Moreover, the Log reductions in data set [3] (PA 0 ppm, LA 5,000 ppm) was 0.3; in data set [3] (PA 0 ppm, LA 10,000 ppm), 0.7.

Consider `CC(=O)OO` [Peroxyacetic acid, peroxyacetic acid], for which the “Log reduction, attached cells” value in the data set on E. coli K12 (Romaine, PAA 60 ppm, LA 0.0%) came to 0.26; in the data set on E. coli K12 (Romaine, PAA 70 ppm, LA 0.0%), 0.53; with E. coli K12 (Romaine, PAA 80 ppm, LA 0.0%), 1.18; in the data set with E. coli K12 (Spinach, PAA 60 ppm, LA 0.0%), 0.69; in the data set on E. coli K12 (Spinach, PAA 70 ppm, LA 0.0%), 1.33; with E. coli K12 (Spinach, PAA 80 ppm, LA 0.0%), 2.46. Also, the “Log reduction, attached cells” value in the data set on Listeria innocua (Romaine, PAA 60 ppm, LA 0.0%) is on record as 0.6; in the data set with Listeria innocua (Romaine, PAA 70 ppm, LA 0.0%), 1.0; in the data set on Listeria innocua (Romaine, PAA 80 ppm, LA 0.0%), 1.7; in the data set with Listeria innocua (Spinach, PAA 60 ppm, LA 0.0%), 0.3; in the data set on Listeria innocua (Spinach, PAA 70 ppm, LA 0.0%) it was 0.5; in the data set with Listeria innocua (Spinach, PAA 80 ppm, LA 0.0%), 1.2. The Log reductions was 0.6 in data set [1] (Diced Tomato, PA 60 ppm, LA 0 ppm); 0.7 in data set [1] (Diced Tomato, PA 80 ppm, LA 0 ppm); 1.0 in data set [1] (Potato peel, PA 60 ppm, LA 0 ppm); 1.2 in data set [1] (Potato peel, PA 80 ppm, LA 0 ppm); 1.1 in data set [2] (PA 50 ppm, LA 0 ppm); 0.6 in data set [3] (PA 40 ppm, LA 0 ppm). In addition, the Log reductions in data set [3] (PA 60 ppm, LA 0 ppm) is 0.5; in data set [3] (PA 80 ppm, LA 0 ppm) it was 1.0. The “Oxidation Capacity” value in data set [4] is listed as 1.81 eV.
